These are literature values, as cited in patent publication US7019016B2, “NMDA NR2B antagonists for treatment” (Pfizer Inc, priority 2000, dated 2006).

The conditions of series [1]: animal models of pain perception.
The target in series [2] is NMDA receptors comprised of NR1/NR2B subunits (Homo sapiens, UniProt Q05586+Q13224). To be noted: NR1/NR2B subunits compared to NR1/NR2A, NR2C, or NR2D subunits.
Chain of NMDA receptors comprised of NR1/NR2B subunits (Q13224 27-1484, other chains not shown): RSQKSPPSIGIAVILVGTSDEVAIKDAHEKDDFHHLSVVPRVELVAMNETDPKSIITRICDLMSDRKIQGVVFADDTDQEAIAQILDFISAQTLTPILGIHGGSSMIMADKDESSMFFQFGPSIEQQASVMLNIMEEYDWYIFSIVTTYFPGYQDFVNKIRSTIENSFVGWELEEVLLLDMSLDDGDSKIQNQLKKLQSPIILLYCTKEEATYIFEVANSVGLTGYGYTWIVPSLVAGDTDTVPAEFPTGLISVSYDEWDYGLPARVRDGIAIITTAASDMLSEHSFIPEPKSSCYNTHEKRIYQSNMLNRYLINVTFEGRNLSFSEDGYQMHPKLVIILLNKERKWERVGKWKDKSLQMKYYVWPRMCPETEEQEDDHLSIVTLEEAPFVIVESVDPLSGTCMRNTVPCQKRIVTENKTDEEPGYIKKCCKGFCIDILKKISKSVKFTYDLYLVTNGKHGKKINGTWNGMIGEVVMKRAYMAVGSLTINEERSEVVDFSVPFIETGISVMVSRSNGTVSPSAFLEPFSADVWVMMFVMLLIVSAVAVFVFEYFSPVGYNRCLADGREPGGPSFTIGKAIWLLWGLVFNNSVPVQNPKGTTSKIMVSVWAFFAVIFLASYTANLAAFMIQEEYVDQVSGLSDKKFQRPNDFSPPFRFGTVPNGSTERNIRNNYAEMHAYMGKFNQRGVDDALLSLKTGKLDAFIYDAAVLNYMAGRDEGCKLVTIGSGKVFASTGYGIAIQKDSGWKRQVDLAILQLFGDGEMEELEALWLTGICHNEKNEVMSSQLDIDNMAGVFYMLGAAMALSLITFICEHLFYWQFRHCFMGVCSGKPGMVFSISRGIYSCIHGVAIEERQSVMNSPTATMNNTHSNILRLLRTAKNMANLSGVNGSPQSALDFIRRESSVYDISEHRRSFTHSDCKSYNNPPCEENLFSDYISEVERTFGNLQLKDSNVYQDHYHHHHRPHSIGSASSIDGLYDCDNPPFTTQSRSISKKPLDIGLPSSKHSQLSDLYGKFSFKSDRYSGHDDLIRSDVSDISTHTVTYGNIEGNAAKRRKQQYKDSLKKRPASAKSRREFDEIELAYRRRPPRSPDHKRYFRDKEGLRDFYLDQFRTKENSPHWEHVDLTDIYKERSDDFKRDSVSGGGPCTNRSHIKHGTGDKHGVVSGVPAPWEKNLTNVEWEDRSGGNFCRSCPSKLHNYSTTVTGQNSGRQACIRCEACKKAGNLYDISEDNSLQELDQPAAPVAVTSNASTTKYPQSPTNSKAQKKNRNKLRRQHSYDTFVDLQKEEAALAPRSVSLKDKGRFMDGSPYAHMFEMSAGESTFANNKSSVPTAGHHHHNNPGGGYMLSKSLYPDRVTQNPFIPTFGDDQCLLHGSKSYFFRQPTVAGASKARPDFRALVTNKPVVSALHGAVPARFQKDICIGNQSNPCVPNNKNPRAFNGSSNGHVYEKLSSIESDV

As for `CC(C(O)c1ccc(O)cc1)N1CCC(Cc2ccccc2)CC1` (centres unmarked) [ifenprodil], the analgesic activity entry in series [1] is on record as “significant analgesic activity”. Moreover, the “blockade of ion current through NMDA receptors” value in series [2] was “more potent and efficacious”.
